What was measured:
Type in all cases: in vivo
Parameters in all cases: key: “0” means that there was no or little difference in the degree of germination or growth between the treated and the untreated tested plants at the time of examination; “5” means that the test plants died complete or their germination or growth was completely inhibited
[1] = system: johnsongrass (Sorghum halepense); test: Test Example 4: soil surface treatment on upland fields; conditions: examined after 25 days, index 0-5
Experimental: (§1) Soil Surface Treatment on upland fields Plastic pots which have an area of (26.5×19)cm^2 and a depth of 7 cm were filled with upland soil, seeded with hemp sesbania (Sesbania exaltata), barnyardgrass (Echinochloa crus-gali) and johnsongrass (Sorghum halepense). Each of the test compounds was formulated into emulsifiable concentrates according to Formulation Example 2, which was diluted with a designated amount of water, and such was uniformly sprayed over the soil surface in the pots with a sprayer at a volume of 100 liters per hectare. After the application, the test were grown in a greenhouse for 25 days, and the herbicidal activity was examined.

[2] = system: barnyardgrass (Echinochloa crus-gali); test: as above; conditions: examined after 25 days, index 0-5
Experimental: as §1

[3] = system: hemp sesbania (Sesbania exaltata); test: as above; conditions: examined after 25 days, index 0-5
Experimental: as §1

[4] = system: johnsongrass (Sorghum halepense); test: Test Example 5: soil incorporation treatment on upland fields; conditions: examined after 19 days, index 0-5
Text: (§2) Soil Incorporation Treatment on Upland Fields Cylindrical plastic pots of 10 cm in diameter and a 10 cm in depth were filled with upland soil. The soil from the surface to 3 cm in depth was taken and mixed with the dilution which was given by diluting the emulsifiable concentrates of the test compounds, formulated according to Formulation Example 2, with water at a volume of 606 liters per hectare. Thereafter, the treated soil was put back to the pots, in which johnsongrass (Sorghum halepense) was sowed at 1.5 cm in depth. The test plants were grown in a greenhouse for 19 days, and the herbicidal activity was examined.

[5] = system: johnsongrass (Sorghum halepense); test: Test Example 6: soil surface treatment on upland fields; conditions: examined after 25 days, index 0-5
Experimental: (§3) Soil Surface Treatment on Upland Fields Plastic pots which have an area of (26.5×19)cm^2 and a depth of 7 cm were filled with upland soil, seeded with johnsongrass (Sorghum halepense). Each of the test compounds was formulated into emulsifiable concentrates according to Formulation Example 2, which was diluted with a designated amount of water, and such was uniformly sprayed over the soil surface in the pots with a sprayer at a volume of 1000 liters per hectare. After the application, the test plants were placed in a greenhouse for 25 days, and the herbicidal activity was examined.

[6] = system: johnsongrass (Sorghum halepense); test: Test Example 2: soil surface treatment on upland fields; conditions: examined after 25 days, index 0-5
Experimental: Soil Surface Treatment on Upland Fields
as §3, with “Plastic” for “Soil Surface Treatment on Upland Fields Plastic”, “grown” for “placed”

[7] = system: johnsongrass (Sorghum halepense); test: Test Example (Table 3): soil incorporation treatment on upland fields; conditions: examined after 19 days, index 0-5
Text: Soil Incorporation Treatment on Upland Fields
as §2, with “Cylindrical” for “Soil Incorporation Treatment on Upland Fields Cylindrical”

[8] = system: common cocklebur (Xanthium strumarium); test: Test Example 1: foliar treatment on upland fields; conditions: 1 g/ha active ingredient; foliar spray on 21-day plants, 1% Agri-Dex; examined after 21 days; index 0-5
Experimental: Foliar Treatment on Upland Fields
Plastic pots which have an area of (26.5×19)cm^2 and a depth of 7 cm were filled with upland soil, seeded with common cocklebur (Xanthium strumarium) and were given 21 days to grow in a greenhouse. Each of the test compounds was formulated into emulsifiable concentrates according to Formulation Example 2, which was diluted with a designated amount of water containing 1% Agri-Dex (adjuvant produced by Helena Chemical Company), and such was uniformly sprayed over the foliage of the test plants with a sprayer at a volume of 1000 liters per hectare. After the application, the test plants were grown in the greenhouse for 21 days, and the herbicidal activity was examined.

CCOC(=O)C(C)Oc1cc(-n2c(=O)cc(C(F)(F)F)n(C)c2=O)c(F)cc1Cl (racemic) [Comparative Compound 2, ethyl (2RS)-2-[2-chloro-4-fluoro-5-[3-methyl-2,6-dioxo-4-(trifluoromethyl)-1,2,3,6-tetrahydropyrimidin-1-yl]phenoxy]propionate] was tested, and the “Herbicidal Activity johnson-grass” value ([1]; 16 g/ha) was 0, the “Herbicidal Activity johnson-grass” value ([1]; 32 g/ha) was 2 and the “Herbicidal Activity johnson-grass” value ([1]; 63 g/ha) was 3. The “Herbicidal Activity johnson-grass” value ([1]; 125 g/ha) was 4, the “Herbicidal Activity barnyard-grass” value ([2]; 16 g/ha) was 0 and the “Herbicidal Activity barnyard-grass” value ([2]; 32 g/ha) was 3. The “Herbicidal Activity barnyard-grass” value ([2]; 63 g/ha) was 3, the “Herbicidal Activity barnyard-grass” value ([2]; 125 g/ha) was 5 and the “Herbicidal Activity hemp sesbania” value ([3]; 16 g/ha) was 0. For the same compound, the “Herbicidal Activity hemp sesbania” value ([3]; 32 g/ha) was 2, the “Herbicidal Activity hemp sesbania” value ([3]; 63 g/ha) was 3 and the “Herbicidal Activity hemp sesbania” value ([3]; 125 g/ha) was 4. The “Herbicidal Activity johnsongrass” value ([4]; 20 g/ha) was 1, the “Herbicidal Activity johnsongrass” value ([4]; 40 g/ha) was 2 and the “Herbicidal Activity johnsongrass” value ([4]; 80 g/ha) was 4.
For C=CCOC(=O)C(C)Oc1cc(-n2c(=O)cc(C(F)(F)F)n(C)c2=O)c(F)cc1Cl (racemic) [Comparative Compound 3, allyl (2RS)-2-[2-chloro-4-fluoro-5-[3-methyl-2,6-dioxo-4-(trifluoromethyl)-1,2,3,6-tetrahydropyrimidin-1-yl]phenoxy]propionate, reference compound], the “Herbicidal Activity johnsongrass” value ([5]; 16 g/ha) was 0, the “Herbicidal Activity johnsongrass” value ([5]; 32 g/ha) was 1 and the “Herbicidal Activity johnsongrass” value ([5]; 63 g/ha) was 2.
In the case of COC(=O)C(C)Oc1cc(-n2c(=O)cc(C(F)(F)F)n(C)c2=O)c(F)cc1Cl (single isomer, unassigned) [Present Compound 6, methyl 2-[2-chloro-4-fluoro-5-[3-methyl-2,6-dioxo-4-(trifluoromethyl)-1,2,3,6-tetrahydropyrimidin-1-yl]phenoxy]propionate], the “Herbicidal Activity johnsongrass” value ([6]; 16 g/ha) was 4, the “Herbicidal Activity johnsongrass” value ([6]; 32 g/ha) was 5 and the “Herbicidal Activity johnsongrass” value ([6]; 63 g/ha) was 5. The “Herbicidal Activity johnsongrass” value ([7]; 20 g/ha) was 3, the “Herbicidal Activity johnsongrass” value ([7]; 40 g/ha) was 5 and the “Herbicidal Activity johnsongrass” value ([7]; 80 g/ha) was 5.
With COC(=O)C(C)Oc1cc(-n2c(=O)cc(C(F)(F)F)n(C)c2=O)c(F)cc1Cl (single isomer, unassigned) [Present Compound 7, methyl 2-[2-chloro-4-fluoro-5-[3-methyl-2,6-dioxo-4-(trifluoromethyl)-1,2,3,6-tetrahydropyrimidin-1-yl]phenoxy]propionate] the “Herbicidal Activity johnsongrass” value ([6]; 16 g/ha) was 4, the “Herbicidal Activity johnsongrass” value ([6]; 32 g/ha) was 5 and the “Herbicidal Activity johnsongrass” value ([6]; 63 g/ha) was 5. For the same compound, the “Herbicidal Activity johnsongrass” value ([7]; 20 g/ha) was 2, the “Herbicidal Activity johnsongrass” value ([7]; 40 g/ha) was 5 and the “Herbicidal Activity johnsongrass” value ([7]; 80 g/ha) was 5.
For COC(=O)[C@H](C)Oc1cc(-n2c(=O)cc(C(F)(F)F)n(C)c2=O)c(F)cc1Cl [Comparative Compound 1, methyl (2S)-2-[2-chloro-4-fluoro-5-[3-methyl-2,6-dioxo-4-(trifluoromethyl)-1,2,3,6-tetrahydropyrimidin-1-yl]phenoxy]propionate, reference compound], the “Herbicidal Activity Common Cocklebur” value [8] was 0.
In the case of COC(=O)C(C)Oc1cc(-n2c(=O)cc(C(F)(F)F)n(C)c2=O)c(F)cc1Cl (centres unmarked) [Comparative Compound 4, methyl 2-[2-chloro-4-fluoro-5-[3-methyl-2,6-dioxo-4-(trifluoromethyl)-1,2,3,6-tetrahydropyrimidin-1-yl]phenoxy]propionate, reference compound], the “Herbicidal Activity johnsongrass” value ([6]; 16 g/ha) was 1, the “Herbicidal Activity johnsongrass” value ([6]; 32 g/ha) was 2 and the “Herbicidal Activity johnsongrass” value ([6]; 63 g/ha) was 4. For the same compound, the “Herbicidal Activity johnsongrass” value ([7]; 20 g/ha) was 0, the “Herbicidal Activity johnsongrass” value ([7]; 40 g/ha) was 2 and the “Herbicidal Activity johnsongrass” value ([7]; 80 g/ha) was 4.
COC(=O)[C@@H](C)Oc1cc(-n2c(=O)cc(C(F)(F)F)n(C)c2=O)c(F)cc1Cl [Present Compound 1, methyl (2R)-2-[2-chloro-4-fluoro-5-[3-methyl-2,6-dioxo-4-(trifluoromethyl)-1,2,3,6-tetrahydropyrimidin-1-yl]phenoxy]propionate] was tested, and the “Herbicidal Activity Common Cocklebur” value [8] was 5.
With CCOC(=O)[C@@H](C)Oc1cc(-n2c(=O)cc(C(F)(F)F)n(C)c2=O)c(F)cc1Cl [Present Compound 2, ethyl (2R)-2-[2-chloro-4-fluoro-5-[3-methyl-2,6-dioxo-4-(trifluoromethyl)-1,2,3,6-tetrahydropyrimidin-1-yl]phenoxy]propionate] the “Herbicidal Activity johnson-grass” value ([1]; 16 g/ha) was 3, the “Herbicidal Activity johnson-grass” value ([1]; 32 g/ha) was 5 and the “Herbicidal Activity johnson-grass” value ([1]; 63 g/ha) was 5. For the same compound, the “Herbicidal Activity barnyard-grass” value ([2]; 16 g/ha) was 5, the “Herbicidal Activity barnyard-grass” value ([2]; 32 g/ha) was 5 and the “Herbicidal Activity barnyard-grass” value ([2]; 63 g/ha) was 5. The “Herbicidal Activity hemp sesbania” value ([3]; 16 g/ha) was 2, the “Herbicidal Activity hemp sesbania” value ([3]; 32 g/ha) was 5 and the “Herbicidal Activity hemp sesbania” value ([3]; 63 g/ha) was 5. For the same compound, the “Herbicidal Activity johnsongrass” value ([4]; 20 g/ha) was 4, the “Herbicidal Activity johnsongrass” value ([4]; 40 g/ha) was 5 and the “Herbicidal Activity johnsongrass” value ([4]; 80 g/ha) was 5.
For C=CCOC(=O)[C@@H](C)Oc1cc(-n2c(=O)cc(C(F)(F)F)n(C)c2=O)c(F)cc1Cl [Present Compound 3, allyl (2R)-2-[2-chloro-4-fluoro-5-[3-methyl-2,6-dioxo-4-(trifluoromethyl)-1,2,3,6-tetrahydropyrimidin-1-yl]phenoxy]propionate], the “Herbicidal Activity johnsongrass” value ([5]; 16 g/ha) was 3, the “Herbicidal Activity johnsongrass” value ([5]; 32 g/ha) was 5 and the “Herbicidal Activity johnsongrass” value ([5]; 63 g/ha) was 5.
For COC(=O)[C@@H](C)Oc1cc(-n2c(=O)cc(C(F)(F)F)n(C)c2=O)c(F)cc1Cl [Present Compound 5, methyl (2R)-2-[2-chloro-4-fluoro-5-[3-methyl-2,6-dioxo-4-(trifluoromethyl)-1,2,3,6-tetrahydropyrimidin-1-yl]phenoxy]propionate], the “Herbicidal Activity johnsongrass” value ([6]; 16 g/ha) was 4, the “Herbicidal Activity johnsongrass” value ([6]; 32 g/ha) was 5 and the “Herbicidal Activity johnsongrass” value ([6]; 63 g/ha) was 5. For the same compound, the “Herbicidal Activity johnsongrass” value ([7]; 20 g/ha) was 4, the “Herbicidal Activity johnsongrass” value ([7]; 40 g/ha) was 5 and the “Herbicidal Activity johnsongrass” value ([7]; 80 g/ha) was 5.
